Data on 30 compounds can be found in ChEMBL document CHEMBL1764981, “Coumarin-purine ribofuranoside conjugates as new agents against hepatitis C virus” (J Med Chem, 2011).

For orientation: EC50 means the concentration that produces a half-maximal response. In general, CC50 refers to the concentration that lowers cell viability or growth by half. For orientation: solubility means the concentration that dissolves in the medium under given conditions. Lower therefore signals little dissolved substance.

A short description of series [1]: Selectivity index, ratio of CC50 for human Huh5-2 cells to EC50 for Hepatitis C virus. As to conditions: read-out: Ratio CC50/EC50. The class given is toxicity, cell-based, Huh-5-2.
The test system of series [2] is Hepatitis C virus. Put plainly: Antiviral activity against Hepatitis C virus infected in human Huh5-2 cells assessed as […] by viral RNA (luciferase) assay. The class given is functional, organism-based, Hepacivirus hominis. The note with it: Huh-5-2. Background: Damage to the host cells serves as the signal in cytopathic effect assays.

Series [3] relates to Huh-5-2. Put plainly: Cytotoxicity against human Huh5-2 cells assessed as microscopically detectable alteration in cell morphology by cytostatic determination assay. The class given is functional.
The nature of series [4]: Solubility of compound in water by HPLC-UV method. Format: physicochemical.
Series [5] concerns Hepatitis C virus. Put plainly: Antiviral activity against Hepatitis C virus. The class given is functional, organism-based. As to conditions: Hepacivirus hominis.

Each structure is given as a SMILES string. ≈ marks a conversion by molar mass, not a printed value. Calls of active or inactive are those of the source. No cut-off for these calls is given here.

`CC(=O)OC[C@H]1O[C@@H](n2c(SCc3cc4cc(Cl)ccc4oc3=O)nc3cncnc32)[C@H](OC(C)=O)[C@@H]1OC(C)=O`: in series [1], the selectivity ratio was determined as 2.4. Also, the 50% effective concentration (EC50) in series [2] is 3.2 µM. In series [3], the CC50 was 7.5 µM.
In the same order, the values of `CC(=O)OC[C@H]1O[C@@H](n2c(SCc3cc4cc(F)ccc4oc3=O)nc3cncnc32)[C@H](OC(C)=O)[C@@H]1OC(C)=O` are 1.2, 6.1 µM and 7.6 µM.
`O=c1oc2ccc(F)cc2cc1CSc1nc2cncnc2n1[C@@H]1O[C@H](CO)[C@@H](O)[C@H]1O`: the selectivity ratio in series [1] worked out at 4.9. In addition, the EC50 in series [2] was found to be 7.4 µM. Moreover, the CC50 in series [3] is 36 µM.
Regarding `CC(=O)OC[C@H]1O[C@@H](n2c(SCc3cc4cc(C)ccc4oc3=O)nc3cncnc32)[C@H](O)[C@@H]1O`, the selectivity ratio in series [1] turned out to be 3.5. In addition, the EC50 in series [2] is 4.6 µM. Besides, in series [3], the CC50 came out at 16 µM.
As to `CC(=O)OC[C@H]1O[C@@H](n2c(SCc3cc4cc(Br)ccc4oc3=O)nc3cncnc32)[C@H](O)[C@@H]1O`, the selectivity ratio in series [1] was 3.8. In series [2], the EC50 stood at 8.3 µM. The CC50 in series [3] is 31 µM.
On to `Nc1ncnc2c1nc(SCc1cc3ccccc3oc1=O)n2[C@@H]1O[C@H](CO)[C@@H](O)[C@H]1O`, for which the selectivity ratio in series [1] turned out to be 1.7. In series [2], the EC50 was 28 µM. Besides, in series [3], the cytotoxic concentration (CC50) amounted to 49 µM.
As for `OC[C@H]1O[C@@H](n2c(S)nc3cncnc32)[C@H](O)[C@@H]1O`, in series [2], the EC50 is greater than 176 µM. Further, in series [3], the CC50 was greater than 176 µM.
With `CC1(C)O[C@@H]2[C@H](O1)[C@H](n1c(SCc3cc4cc(Br)ccc4oc3=O)nc3cncnc31)O[C@@H]2CO`, in series [1], the selectivity ratio was determined as 3.6. Besides, the EC50 in series [2] came to 2.1 µM. In addition, the CC50 in series [3] is 7.5 µM.
In the case of `CC(=O)OC[C@H]1O[C@@H](n2c(SCc3cc4ccccc4oc3=O)nc3cncnc32)[C@H](OC(C)=O)[C@@H]1OC(C)=O`, in series [1], the selectivity ratio was 5.9. The EC50 in series [2] came to 6.6 µM. For the same compound, the CC50 in series [3] was determined as 39 µM.
`CC(=O)OC[C@H]1O[C@@H](n2c(SCc3cc4cc(Br)ccc4oc3=O)nc3cncnc32)[C@H](OC(C)=O)[C@@H]1OC(C)=O`: the selectivity ratio in series [1] was 1.4. For the same compound, in series [2], the EC50 is 4.9 µM. For the same compound, the CC50 in series [3] came to 6.7 µM.
As for `O=c1oc2c(Br)cc(Br)cc2cc1CSc1nc2cncnc2n1[C@@H]1O[C@H](CO)[C@@H](O)[C@H]1O`, in series [1], the selectivity ratio was 6.1. Besides, in series [2], the EC50 was determined as 5.9 µM. Further, the CC50 in series [3] is 36 µM.
As for `COc1cccc2cc(CSc3nc4cncnc4n3[C@@H]3O[C@H](COC(C)=O)[C@@H](OC(C)=O)[C@H]3OC(C)=O)c(=O)oc12`, the selectivity ratio in series [1] amounted to 3.3. In series [2], the EC50 amounted to 2.3 µM. Besides, the CC50 in series [3] came to 7.5 µM. The same compound showed a solubility in series [4] of 78.3 µg/mL (≈ 131 µM).
In the case of `CC(=O)OC[C@H]1O[C@@H](n2c(=S)[nH]c3cncnc32)[C@H](OC(C)=O)[C@@H]1OC(C)=O`, the EC50 in series [2] is greater than 122 µM. Besides, in series [3], the CC50 is greater than 122 µM. The outcome in series [5] was inactive.
Regarding `CC(=O)OC[C@H]1O[C@@H](n2c(=S)n([C@@H]3O[C@H](COC(C)=O)[C@@H](OC(C)=O)[C@H]3OC(C)=O)c3ncncc32)[C@H](OC(C)=O)[C@@H]1OC(C)=O`, the selectivity ratio in series [1] is greater than 1.1. The half-maximal effective concentration (EC50) in series [2] is 66 µM. The CC50 in series [3] was greater than 75 µM. For the same compound, the result in series [5] was inactive.
Regarding `COc1cccc2cc(CSc3nc4c(N)ncnc4n3[C@@H]3O[C@H](CO)[C@@H](O)[C@H]3O)c(=O)oc12`, the selectivity ratio in series [1] is greater than 2.4. Besides, in series [2], the EC50 is 43 µM. For the same compound, the CC50 in series [3] is greater than 103 µM.
`COc1cccc2cc(CSc3nc4cncnc4n3[C@@H]3O[C@H](CO)[C@@H]4OC(C)(C)O[C@@H]43)c(=O)oc12`: the selectivity ratio in series [1] amounted to 5.2. For the same compound, the EC50 in series [2] is 1.6 µM. Moreover, the CC50 in series [3] was 8.4 µM. This compound registered a solubility in series [4] of 87.7 µg/mL (≈ 171 µM).
Regarding `Nc1ncnc2c1nc(SCc1cc3cc(Br)ccc3oc1=O)n2[C@@H]1O[C@H](CO)[C@@H](O)[C@H]1O`, the selectivity ratio in series [1] was determined as 1.5. Besides, the EC50 in series [2] stood at 27 µM. In addition, in series [3], the CC50 amounted to 41 µM.
In the case of `O=c1oc2ccccc2cc1CSc1nc2cncnc2n1[C@@H]1O[C@H](CO)[C@@H](O)[C@H]1O`, the selectivity ratio in series [1] was found to be 9.1. The EC50 in series [2] turned out to be 5.5 µM. The CC50 in series [3] came to 50 µM.
For `O=c1oc2ccc(Cl)cc2cc1CSc1nc2cncnc2n1[C@@H]1O[C@H](CO)[C@@H](O)[C@H]1O`, the selectivity ratio in series [1] came to 8.5. In series [2], the EC50 amounted to 4.3 µM. Moreover, the cytotoxic concentration (CC50) in series [3] amounted to 37 µM.
Turning to `CC(=O)OC[C@H]1O[C@@H](n2c(SCc3cc4cc(F)ccc4oc3=O)nc3cncnc32)[C@H](O)[C@@H]1O`, in series [1], the selectivity ratio turned out to be 2.3. In series [2], the concentration giving a half-maximal response (EC50) is 3.8 µM. Besides, in series [3], the CC50 was found to be 8.6 µM.
As to `CC(=O)OC[C@H]1O[C@@H](n2c(SCc3cc4ccccc4oc3=O)nc3cncnc32)[C@H](O)[C@@H]1O`, the selectivity ratio in series [1] is less than 0.98. Further, the EC50 in series [2] is greater than 8.9 µM. Also, the CC50 in series [3] was found to be 8.7 µM.
On to `CC(=O)OC[C@H]1O[C@@H](n2c(SCc3cc4cc(Br)cc(Br)c4oc3=O)nc3cncnc32)[C@H](OC(C)=O)[C@@H]1OC(C)=O`, for which, in series [1], the selectivity ratio was found to be 1.2. For the same compound, the EC50 in series [2] is 4.9 µM. The CC50 in series [3] was found to be 6 µM.
In the same order, the values of `Nc1ncnc2c1nc(SCc1cc3cc(Br)cc(Br)c3oc1=O)n2[C@@H]1O[C@H](CO)[C@@H](O)[C@H]1O` are 1.4, 26 µM and 36 µM.
With `CC1(C)O[C@@H]2[C@H](O1)[C@H](n1c(SCc3cc4ccccc4oc3=O)nc3cncnc31)O[C@@H]2CO`, the selectivity ratio in series [1] is 3.2. For the same compound, the EC50 in series [2] worked out at 2.8 µM. For the same compound, in series [3], the CC50 was found to be 8.8 µM.
On to `COc1cccc2cc(CSc3nc4cncnc4n3[C@@H]3O[C@H](COC(C)=O)[C@@H](O)[C@H]3O)c(=O)oc12`, for which, in series [1], the selectivity ratio stood at 1.9. Further, the EC50 in series [2] came out at 5.8 µM. In series [3], the CC50 was 11 µM. In series [4], this compound had a solubility of 216 µg/mL (≈ 421 µM).
In the case of `CC(=O)OC[C@H]1O[C@@H](n2c(SCc3cc4cc(Br)cc(Br)c4oc3=O)nc3cncnc32)[C@H](O)[C@@H]1O`, the selectivity ratio in series [1] was 1. Besides, in series [2], the EC50 amounted to 6.8 µM. Also, the CC50 in series [3] worked out at 7 µM.
`Cc1ccc2oc(=O)c(CSc3nc4cncnc4n3[C@@H]3O[C@H](CO)[C@@H](O)[C@H]3O)cc2c1`: the selectivity ratio in series [1] was 5.1. For the same compound, in series [2], the EC50 was 9.2 µM. Besides, in series [3], the CC50 is 46 µM.
Take `COc1cccc2cc(CSc3nc4cncnc4[nH]3)c(=O)oc12`: in series [1], the selectivity ratio is 4.8. In addition, the CC50 in series [3] turned out to be 94 µM. Further, the concentration in solution in series [4] (solubility) was 31.6 µg/mL (≈ 92.8 µM).
Consider `CC(=O)OC[C@H]1O[C@@H](n2c(SCc3cc4cc(C)ccc4oc3=O)nc3cncnc32)[C@H](OC(C)=O)[C@@H]1OC(C)=O`, for which the selectivity ratio in series [1] came to 2.1. Also, the EC50 in series [2] turned out to be 7.7 µM. For the same compound, the CC50 in series [3] was determined as 16 µM.
As for `COc1cccc2cc(CSc3nc4cncnc4n3[C@@H]3O[C@H](CO)[C@@H](O)[C@H]3O)c(=O)oc12`, the selectivity ratio in series [1] turned out to be 5. For the same compound, the EC50 in series [2] is 9.5 µM. In series [3], the CC50 was 47 µM. Besides, the concentration in solution in series [4] (solubility) came to 224 µg/mL (≈ 474 µM).
